Laboratory results reported in US20050255568A1, “Methods and compositions for amino acid production” (priority 2003, published 2005).

What was measured:
[1] = target: T1, O-Acetylhomoserine sulfhydrylase (MetY) (Corynebacterium glutamicum, UniProt Q79VI4); conditions: cited from earlier work
T1 sequence (Q79VI4 1-437): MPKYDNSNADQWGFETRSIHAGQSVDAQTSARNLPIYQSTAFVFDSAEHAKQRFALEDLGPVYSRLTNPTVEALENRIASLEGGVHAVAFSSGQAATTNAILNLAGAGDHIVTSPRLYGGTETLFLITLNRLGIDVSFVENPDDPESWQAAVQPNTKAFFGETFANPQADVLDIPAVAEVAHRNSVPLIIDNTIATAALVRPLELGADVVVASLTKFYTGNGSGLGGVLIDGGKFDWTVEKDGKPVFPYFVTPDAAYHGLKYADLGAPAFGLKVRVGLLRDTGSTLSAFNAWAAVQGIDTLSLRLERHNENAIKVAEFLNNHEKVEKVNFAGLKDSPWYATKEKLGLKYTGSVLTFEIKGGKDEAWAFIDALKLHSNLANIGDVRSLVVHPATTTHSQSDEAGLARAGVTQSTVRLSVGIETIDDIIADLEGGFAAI

C. glutamicum MetA = target: T2, C. glutamicum MetA (Corynebacterium glutamicum, UniProt O68640); type: biochemical
T2 construct: crude protein extracts derived from C. glutamicum strains MA-442 and MA-449 which contain both endogenous and episomal C. glutamicum MetA and MetY genes; expressed in transfected cells; host or cells: C. glutamicum MA-442 (MA-428 derivative of ATCC 13032) carrying episomal plasmid MB-4135 (lacIQ-trcRBS, C. glutamicum metA-RBS-metY, both wild type); crude extract
T2 sequence (O68640 1-377): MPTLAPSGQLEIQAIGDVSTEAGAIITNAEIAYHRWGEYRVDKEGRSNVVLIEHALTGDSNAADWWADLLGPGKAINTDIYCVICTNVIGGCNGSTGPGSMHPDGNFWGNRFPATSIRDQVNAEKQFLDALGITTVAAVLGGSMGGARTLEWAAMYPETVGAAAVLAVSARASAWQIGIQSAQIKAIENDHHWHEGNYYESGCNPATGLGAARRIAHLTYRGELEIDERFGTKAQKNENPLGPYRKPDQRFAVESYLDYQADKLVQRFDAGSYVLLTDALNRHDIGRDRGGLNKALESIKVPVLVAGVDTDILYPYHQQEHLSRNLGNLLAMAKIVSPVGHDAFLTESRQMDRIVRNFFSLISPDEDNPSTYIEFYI
Experimental: MetA activity in C. glutamicum expressing endogenous and episomal metA genes was determined. MetA activity was assayed in crude protein extracts using a protocol described by Kredich and Tomkins (J. Biol. Chem.241(21):4955-4965, 1966). […] Briefly, 1 μg of protein extract was added to a microtiter plate. Reaction mix (250 μl; 100 mM tris-HCl pH 7.5, 2mM 5,5′-Dithiobis(2-nitrobenzoic acid) (DTN), 2 mM sodium EDTA, 2 mM acetyl CoA, 2 mM homoserine) was added to each well of the microtiter plate. In the course of the reactions, MetA activity liberates CoA from acetyl-CoA. A disulfide interchange occurs between the CoA and DTN to produce thionitrobenzoic acid. The production of thionitrobenzoic acid is followed spectrophotometrically. Absorbance at 412 nm was measured every 5 minutes over a period of 30 minutes. A well without protein extract was included as a control. […] Inhibitors were added directly to the reaction mix before it was added to the protein extract. […] Experiments were performed in the presence and absence of IPTG that induces expression of the plasmid borne MetA and MetY genes.

SMILES | MetY enzyme activity (in words) [1] | MetA activity of MA-442 extracts in the presence of S-AM (C. glutamicum MetA; 0.2 mM S-AM) | reduction in MetY enzyme activity ([1]; 0.5 mM methionine, combined allosteric regulation and repression) | MetA activity of MA-442 extracts in the presence of methionine (C. glutamicum MetA; 5 mM methionine)
CC(=O)OC[C@H](N)C(=O)O [O-acetylserine] | inhibited |  |  | 
C[S+](CC[C@H](N)C(=O)[O-])C[C@H]1O[C@@H](n2cnc3c(N)ncnc32)[C@H](O)[C@@H]1O (stereo partly drawn) [S-AM, S-adenosyl methionine] |  | reduced |  | 
N[C@@H](CCO)C(=O)O [homoserine] | inhibited |  |  | 
CSCC[C@H](N)C(=O)O [methionine] | inhibited |  | 99% | reduced
